Measured values: patent US20090291934A1, “Method for decomposing an allergen” (Shinshu TLO Co., Ltd., priority 2003, published 2009)

Assays:
[1] = tested on: guinea pig skin; conditions: sensitized with 0.1% DNCB, induced by 0.1% DNCB, 48 hours after inducing
[2] = tested on: guinea pig skin; test: Toxicity experiment with rays in guinea pig (Morikawa et al. method); type: in vivo, guinea pig (Crj; Hartley); conditions: 0.03 mL of 0.05% 8-methoxypsoralen, UV, all spread parts
Method: In the comparative group of the medium, the clipped backs of the guinea pigs were open spread by 0.03 mL of dimethylsulfoxide.
As the positive comparative group, the clipped backs of the guinea pigs were open spread by 0.03 mL of 0.05% 8-methoxypsoralen. After 30 minutes, they were exposed to ultraviolet rays (about 11.2 Joules/cm^2). The reactions on the skins were evaluated at 24 and 48 hours after exposing to rays.

[3] = tested on: fibroblasts derived from Chinese hamster lung (CHL/IU cell); test: Experiment on chromosome aberration by using mammalian cells; type: cell-based; conditions: positive comparative group, short time
Method: The experiment on chromosome aberration was examined as follows. The experiment doses of the test material were determined by the inhibition experiment of increasing cells. As a result of the inhibition experiment of increasing cells, the concentration of test material in 50% inhibition experiment of increasing cells was 5.0 mg/mL or more in −S9mix method treating in a short time. And the concentration thereof was 0.840 mg/mL in +S9mix method treating in a short time.
As the negative comparative, the non-treating group and the comparative group of the medium were prepared, and as the positive comparative, the mitomycin C (0.05 μg/mL)-treating group was prepared.
Under this experiment, colcemid (available from GIBCO/Lot No. 1125546) was added to laboratory dishes for chromosome specimens to the last concentration of 0.2 μg/mL at 2 hours before making specimens so that cell divisions were stopped in the middle of the division period. After 2 hours, the culture solutions in the laboratory dishes were moved into a conical bottom tube. […] Furthermore, the laboratory dishes prepared for the cell increasing rate were fixed and stained in the same method as the inhibition experiment of increasing cells described above, and the cell increasing rate was measured. […]

[4] = tested on: guinea pig skin; test: Sensitization experiment with rays in guinea pig skin (Adjuvant and Strip method); type: in vivo, guinea pig (Crj; Hartley); conditions: sensitized with 5% 6-MC
Method: The procedures were repeated for 5 days and the guinea pigs were sensitized with rays.
In the comparative group of the medium, the guinea pigs were injected with to sensitize and induced by dimethylsulfoxide. […] As the positive comparative group, the guinea pigs were injected with 5% 6-methylcoumarin (6-MC) to sensitize, and induced by 1% 6-MC.

[5] = tested on: rabbit eye mucosa; test: Irritation experiment on rabbit eye mucosa; type: in vivo, rabbit (Japanese White); conditions: for irritation on the rabbit eye mucosa (Kay and Calandra classification): 100 mg powder
Method: Male rabbits at the age of 10 weeks (Japanese White, Kb1:JW(SPF)) were prepared for a washed group (n=3) and a non-washed group (n=3). After pre-bred for 7 days, the rabbits were confirmed normality about changes of body weight and health condition. On the preceding day, they were confirmed about normality of eyes macroscopically and no injury of cornea by fluoresceine staining (fluor-paper, Lot No. 3990849 available from Wyeth-Ayerest Laboratories, USA) using slitlamp (type SL-5: available from Kowa Company, Ltd.) to prepare for experiment.
100 mg of iron phthalocyanine tetracarboxylic acid powder, which was screened through a mesh having 300 μm of aperture once, was put into right conjunctiva of each rabbit, and upper and lower eyelids were gently kept closed for about one second. In the washed group, to remove powder, the conjunctiva was washed with 230-330 mL of lukewarm water at 30 seconds after putting to remove the powder. The left conjunctiva of each rabbit wasn't treated in both groups. The cornea, iris and the conjunctiva in both groups were compared with non-treated eye as reference at 1, 24, 48 and 72 hours after putting. […] The observation results were scored following Draize scoring criteria (Appendix 3), and the irritation was evaluated following Kay and Calandra classification (Appendix 4).

[6] = tested on: rats; test: Toxicity experiment by oral injection of solution dissolving the decomposer to rats (for once)
Method: They were divided into each group according to their body weights measured before housed by a continuous stratified sampling method. Extra rats caused by the method were excluded from the experiment and euthanized.
Following the medical toxicity test guideline, the amount of injection was determined 2000 mg/kg, technical upper limit of oral injection. A comparative group, which a comparative material of purified water in the Japanese Pharmacopoeia was injected, was also prepared. 10 male rats and 10 female rats were divided into two groups respectively.
Their health conditions and life or death were observed continuously before the injection of the solution, at 5, 15, 30 minutes, 1, 2, and 4 hours after the injection, and once a day as from the following day. They were weighed before the injection of the solution, and at 9:00-12:00 on 1, 3, 7, 10, 14th day after the injection. After all the observations, their organs and tissues in heads, chests and abdomens were researched whether normal or not.

[7] = target: T1, Tick antigen Derf II (Dermatophagoides farinae, UniProt Q00855); test: Two-dimensional electrophoresis of tick allergen with and without Fe-Pc-COOK; type: biochemical; conditions: Derf II sol. with 0.1 or 0.5 w/v % Fe-Pc-COOK (A) vs tick allergen only (B), silver stain
T1 construct: purchased ASAHI BREWERIES, LTD
T1 sequence (Q00855 18-146): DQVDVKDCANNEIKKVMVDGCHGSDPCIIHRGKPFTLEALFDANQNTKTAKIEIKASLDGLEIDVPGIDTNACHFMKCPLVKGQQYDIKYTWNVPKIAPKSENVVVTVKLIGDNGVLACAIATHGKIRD
Text: Tick antigen Derf II (available from ASAHI BREWERIES, LTD.) was chosen between the allergens, and we compared electrophoresis of the tick allergen containing iron phthalocyanine tetracarboxylic acid with that of the allergen only.
Iron phthalocyanine tetracarboxylic acid potassium salt (Fe-Pc-COOK) aqueous solution and Derf II solution, which appropriate concentrations (w/v %) were mentioned in Table 4, were mixed with swelling stock solution containing IPG (Immobilized pH Gradient) buffer (8 mol/L Urea, 2 w/v % CHAPS, 2% IPG Buffer, appropriate amount of Bromophenol blue, and distilled water) to prepare experimental solutions of preparing examples 1-4 in Table 4.
Whereas Derf II solution was mixed with swelling stock solution containing IPG buffer to prepare experimental solutions of comparative preparing examples 1-4 in Table 4.
One-dimensional electrophoresis gel films (Strip) of Strip pH4-7 and Strip pH 3-10.5 were prepared, soaked in each experimental solution containing appropriate amount of silicon oil for preventing dry, and treated for 10 hours. After being pulled up and washed, each Strip was subjected to one-dimensional electrophoresis containing silicon oil for preventing dry for 16 hours. […]

O=[N+]([O-])c1ccc(Cl)c([N+](=O)[O-])c1 [DNCB, 2,4-dinitrochlorobenzene]
positive rate [1]: 100%

COc1c2occc2cc2ccc(=O)oc12 [8-methoxypsoralen]
skin action score [2]: 4

CN(C)N=O [DMN]
appearance frequency of cells whose chromosomes were abnormal structurally ([3]; +S9mix method): 37.5%

Cc1ccc2oc(=O)ccc2c1 [Example 6-MC, 6-methylcoumarin]
erythema score ([4]; induced by 1% 6-MC and exposed to ultraviolet rays): 2-4 | evaluation of sensitization with rays ([4]; induced by 1% 6-MC, all guinea pigs): positive

iron phthalocyanine tetracarboxylic acid
irritation on the rabbit eye mucosa (Kay and Calandra classification) ([5]; non-washed group): moderately irritating | irritation on the rabbit eye mucosa (Kay and Calandra classification) ([5]; washed group (washed 30 seconds after putting)): practically nonirritating | time by which reaction of the conjunctiva disappeared ([5]; non-washed group): ≤ 10 days | time by which reactions of the cornea and the iris disappeared ([5]; non-washed group, after putting): ≤ 72 h | time by which slight red conjunctiva disappeared ([5]; washed group, after putting): ≤ 24 h | death during the experiment ([6]; 2000 mg/kg oral once, observed 14 days): no male and female rat | minimum lethal dose ([6]; oral once, male and female rats): ≥ 2000 mg/kg

Iron phthalocyanine tetracarboxylic acid potassium salt
effect on tick allergen spots in two-dimensional electrophoresis gel [7]: Disappearance of the spots between pH 5-6

CO[C@@]12[C@H](COC(N)=O)C3=C(C(=O)C(C)=C(N)C3=O)N1C[C@@H]1N[C@@H]12 [MMC, mitomycin C]
appearance frequency of cells whose chromosomes were abnormal structurally ([3]; -S9mix method): 16%
